Experimental findings from publication PMC6656724 (Communications Biology, 2019) are described below.

The nature of data set [1]: Stability in rat hepatocytes.
Method: Rat hepatocyte compound stability assays were performed using cryopreserved vials of rat cryopreserved hepatocytes (Life Technologies), which were thawed according to manufacturer’s instructions and resuspended in Williams Medium E (WME) containing cell maintenance supplement pack (CM4000, Life
Technologies). Hepatocytes were incubated in suspension (0.5 million cells/mL) in 48 well non-collagen coated cell culture plates for 10 minutes at 37 °C, 5%
CO2. Upon addition of an equal volume of supplemented WME containing 1 mM test compound, an aliquot of incubation solution was removed to acetonitrile containing internal standard (final concentration 0.5 mM test compound and a cell density of 0.25 million cells/mL). Similarly, aliquots were removed at 3,6,9,15,30,45,60,90 and
100 mL of 80:20 water:acetonitrile was added to all samples and the analysis plate was centrifuged for 10 minutes at room temperature prior to injection and analysis of samples by UPLC-MS/MS using a Xevo TQs micro (Waters corporation, USA). XLfit (IDBS, UK) was used to calculate the exponential decay and consequently the rate constant (k) from the ratio of peak area of test compound to internal standard at each timepoint. The rate of intrinsic clearance (CLi) was then
1.10 Rat hepatocyte stability […]
internal standard at each timepoint. The calculated hepatocyte intrinsic clearance […]
Data set [2] in a line: Brain tissue binding (equilibrium dialysis). Type of data set: in vitro ADME. The conditions noted are these: mouse, brain homogenate. Here is the method:
tissues were diluted (brain: 1:10, w/v; liver: 1:10,000, w/v) with Krebs buffer containing 100 mM Tris-HCl (pH 8.1), 10 mM KCl and 1 mM EDTA, and sonicated.
80 µl of the resulting tissue homogenates were incubated for 40 min at 37 °C with 20 µl aliquots of aqueous solutions of the test compounds (or water in controls), 10 µM kynurenine, 1 mM NADPH, 3 mM glucose-6-phosphate and 1U/ml glucose-6-phosphate dehydrogenase in a total volume of 200 µl. The reaction was terminated by the addition of 50 µl of 6% perchloric acid, the denatured proteins were removed by centrifugation, and newly synthesized 3-HK was quantified by HPLC with electrochemical detection (Coulochem 5100A; ESA, Chelmsford, MA) at an oxidation potential of […].
The methodology employed was a modification of that reported previously20. […]
for 1 minute and then centrifuged at 3000 rpm in 96-well blocks for 15 minutes (Allegra X12-R, Beckman Coulter, USA). All samples were analysed by means of UPLC/MS/MS on a Xevo TQs micro Mass Spectrometer (Waters Corporation, USA).
The unbound fraction was determined as the ratio of the peak area in artificial CSF to that in brain, with correction for dilution factor according to equation (5)21, […]
((1/f ! ,!""!#$%& ) − 1) + 1/D where D = dilution factor in brain homogenate and fu,apparent is the measured free fraction of diluted brain homogenate. […]
In general terms: In equilibrium dialysis free small molecules cross a membrane that holds back macromolecules.

For data set [3], the target named is T1, PfKMO (Pseudomonas fluorescens, UniProt Q84HF5, C252S/C461S).
T1 construct: made in house; host or cells: E. coli BL21 (DE3)
T1 sequence (Q84HF5 whole entry C252S/C461S): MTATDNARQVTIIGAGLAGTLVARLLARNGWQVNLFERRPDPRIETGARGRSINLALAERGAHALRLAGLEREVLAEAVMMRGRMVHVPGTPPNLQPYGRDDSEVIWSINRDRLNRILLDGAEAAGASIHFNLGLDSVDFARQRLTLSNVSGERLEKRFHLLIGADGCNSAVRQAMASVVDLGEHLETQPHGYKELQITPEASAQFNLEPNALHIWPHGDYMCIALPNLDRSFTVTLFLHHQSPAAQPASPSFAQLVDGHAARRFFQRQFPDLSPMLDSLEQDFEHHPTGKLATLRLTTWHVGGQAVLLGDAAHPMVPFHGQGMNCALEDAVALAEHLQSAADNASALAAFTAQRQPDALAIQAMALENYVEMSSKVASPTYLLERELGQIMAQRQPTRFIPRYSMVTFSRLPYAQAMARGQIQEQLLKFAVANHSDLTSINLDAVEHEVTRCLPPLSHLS
Kind of data set: biochemical. Here is the method:
saturating concentrations of the L-KYN and NADPH substrates. Data are plotted […]
consumption of NADPH at 340 nm upon addition of enzyme via a Cary 50 UV-Vis spectrophotometer (Agilent Technologies). Rates were determined from linear regression fits to the initial linear portion of the curves. All measurements were performed in triplicate. The IC50 values for inhibitors were obtained by plotting the percentage inhibition versus the inhibitor concentration and fitting to the Morrison equation16 (equation 1) using Origin 9.0 Software (OriginLab, Northampton, MA).
E + I + K!"" − E + I + K!"" ! − 4[E][I] where v0 is the enzyme activity without inhibitor, vi is the enzyme activity with ligand concentration [I], [E] is the enzyme concentration, [I] is the inhibitor concentration, K!"" is the apparent inhibition constant and IC = K!"" + [!] . If K!"" ≫ [!], IC ≈ […]
where Ki is the inhibition constant, [S] is the substrate concentration used in the assay and Km is the Michaelis-Menten constant17. […]
between Ki and Ki apparent values, as the conditions for measuring IC50 are different, Ki values can be used to compare with other reported KMO inhibitors.
Steady-state kinetic parameters for PfKMO were calculated by measuring initial rates […]
the observed rate of turnover (v) versus the varied substrate concentration were fitted to equation 2 using Origin 9.0 Software (OriginLab, Northampton, MA).
A B + K!! B + K!! A + K!!K!! where v is the initial rate of activity, Vmax is the maximum velocitie of the reaction, [A] and [B] are the substrate concentration, K!! and K!! are the Michaelis-Menten constant for different substrate and K!! is the inhibition (binding) constant of substrate A to the free enzyme while forming transitory complexes.18
Product inhibition studies were carried out by measuring reaction rates at varying […]
one substrate and varying concentrations of the other substrate. Inhibition studies with target compounds were carried out by measuring reaction rates at varying inhibitor concentrations at saturating concentrations of one substrate and varying concentrations of the other substrate. […]
were used to distinguish between different types of inhibition. The data were fitted to a straight line defined by the Lineweaver-Burke equation (equation 4), with the y intercept providing 1/Vmax and the x intercept giving -1/Km. […]

One may read the fraction unbound as the share of the substance not bound to proteins or other matrix. High values mean weak binding, low ones extensive binding. For `CCOC(=O)CN1C(=O)COc2cc(C)c(Cl)c(C)c21` [1b], the Mean intrinsic clearance in data set [1] was greater than 50 mL/min/g liver. Also, in data set [2], the fraction unbound at 5 h, 10 µg/g was 0.016.
What is called Ki is a dissociation constant, usually derived from enzyme kinetics or from competition with a known ligand. Take `Cc1cc2c(c(C)c1Cl)N(Cc1nn[nH]n1)C(=O)CO2` [1h, 6-chloro-5,7-dimethyl-4-(2H-tetrazol-5-ylmethyl)-1,4-benzoxazin-3-one]: the affinity in data set [3] corresponds to a Ki of 1060 ± 40 nM.
On to `Cc1cc2c(c(C)c1Cl)N(CC(=O)O)C(=O)CO2` [compound 1, (6-chloro-5,7-dimethyl-3-oxo-2,3-dihydro-4H-1,4-benzoxazin-4-yl) acetic acid], for which the Mean intrinsic clearance in data set [1] was 0.8 mL/min/g liver. In addition, in data set [2], the fraction unbound at 5 h, 10 µg/g was 0.3. For the same compound, in data set [3] (PfKMO), the “Mechanism of inhibition with respect to L-KYN” value is given as “competitive inhibitor” and the “Mechanism of inhibition with respect to NADPH” value was “mixed type inhibitors”.
